Source: patent publication US20240408069A1, “NON-INVASIVE MONITORING OF LIVER DISEASE TREATMENT” (INVENTIVA, priority 2023, published 2024)

Columns and labels:
[1] = test system: adult patients with highly active, non-cirrhotic NASH; experiment: NATIVE phase 2b trial, histological response on liver biopsy after 24 weeks of lanifibranor; format: in vivo, human
From the text: Patients were eligible for inclusion if they were 18 years of age or older and had non-cirrhotic NASH (the diagnosis of which required a Steatosis, Activity, Fibrosis [SAF] grade of 1 or higher for steatosis, hepatocellular ballooning and lobular inflammation on liver biopsy). A score of 3 or higher on the SAF-A (the activity part of the SAF scoring system that incorporates the scores for hepatocellular ballooning and lobular inflammation) was also a criterion for eligibility. Patients with stage F4 fibrosis, classified according to the criteria of both the SAF and NASH Clinical Research Network (NASH CRN) were excluded from the study. Patients were randomly assigned in a 1:1:1 ratio to receive 800 or 1200 mg lanifibranor or placebo once daily for 24 weeks. Liver biopsy was obtained at baseline and at the end of treatment. The primary end point of the NATIVE study was defined as a decrease of at least 2 points from baseline to Week 24 (end of treatment) in the SAF-A score and no worsening of fibrosis. Secondary histologic end points included resolution of NASH (defined as a ballooning grade of 0 and a lobular inflammation grade of ≤1) and no worsening of fibrosis; improvement in fibrosis of at least 1 stage and no worsening of NASH (i.e., no worsening in either steatosis, ballooning, or lobular inflammation); Nonalcoholic Fatty Liver Disease Activity Score (NAS) improvement (defined as a decrease of >2 points from baseline to week 24 in the NAS) and no worsening of fibrosis; resolution of NASH and an improvement in fibrosis stage of at least 1 (as a composite end point); change in scores for the components of the SAF and NASH CRN scoring system (steatosis, activity, inflammation, ballooning, and fibrosis); and change in the modified Ishak score. Non-histologic secondary endpoints included changes in a panel of serum biomarkers related to metabolism, inflammation tissue injury and fibrosis. Patients receiving lanifibranor 800 or 1200 mg per day were pooled and those with pre- and post-treatment liver biopsies were selected (n=142). Post-treatment biopsies were considered if they occurred within 14 days following last lanifibranor intake. The following histological endpoint according to NASH-CRN criteria was considered: NASH resolution and fibrosis improvement of at least 1 stage (E1). In the NATIVE trial, from February 2017 through July 2019, 247 patients were randomly assigned to receive 1200 mg of lanifibranor (N=83), 800 mg of lanifibranor (N=83), or placebo (N=81) orally once daily for 6 months. A total of 228 patients completed the trial, 77 in each lanifibranor group and 74 in the placebo group. Reasons for discontinuation of the trial regimen have been reported elsewhere. Finally, among the 154 patients treated with lanifibranor at both doses, 142 patients (N=70 and N=72 patients treated with 800 or 1200 mg per day, respectively) presented with pre- and post-treatment liver biopsies within the time frame required for the present work and were included in the analysis population for signature development.

[2] = test system: adult patients with highly active, non-cirrhotic NASH; settings: cited from earlier work

O=C(O)CCCc1cc2cc(Cl)ccc2n1S(=O)(=O)c1ccc2ncsc2c1 [lanifibranor, 4-[1-(1,3-benzothiazol-6-ylsulfonyl)-5-chloroindol-2-yl] butanoic acid]
Resolution of NASH and improvement of liver fibrosis ≥1 Stage (E1), number of patients reaching endpoint ([1]; 800 mg once daily, N=70): 17 patients
Resolution of NASH and improvement of liver fibrosis ≥1 Stage (E1), patients reaching endpoint ([1]; 800 mg once daily, N=70): 24%
Resolution of NASH and improvement of liver fibrosis ≥1 Stage (E1), number of patients reaching endpoint ([1]; 1200 mg once daily, N=72): 25 patients
Resolution of NASH and improvement of liver fibrosis ≥1 Stage (E1), patients reaching endpoint ([1]; 1200 mg once daily, N=72): 35%
Resolution of NASH and improvement of liver fibrosis ≥1 Stage (E1), number of patients reaching endpoint ([1]; pooled lanifibranor group (800 or 1200 mg once daily), N=142): 42 patients
Resolution of NASH and improvement of liver fibrosis ≥1 Stage (E1), patients reaching endpoint ([1]; pooled lanifibranor group (800 or 1200 mg once daily), N=142 with pre- and post-treatment biopsies): 30%
Percentage of patients with a decrease of at least 2 points in SAF-A score without worsening of fibrosis, compared to placebo ([2]; daily dose of 1200 mg, versus placebo): significantly higher
Secondary endpoints (NASH resolution and fibrosis improvement, NASH resolution without worsening of fibrosis, improvement of fibrosis without worsening of NASH), compared to placebo ([2]; lanifibranor groups versus placebo, NASH-CRN): more favorable than placebo
